In patent US8168656B2, “Indoleacetic acid and indenacetic acid derivatives as therapeutic agents with reduced gastrointestinal toxicity” (Vanderbilt University, priority 2009, dated 2012):
Residue numbers refer to the chain shown, from its start.

Legend:
mCOX-2^V349A = biological target: T1, mCOX-2^V349A (Mus musculus, UniProt Q05769, V335A); assay: Steady-state quenching of COX intrinsic fluorescence (apo-protein); assay type: binding, murine
T1 construct: made in house; host or cells: Sf9 insect cells (baculovirus, pVL1393)
T1 sequence (Q05769 18-604 V335A): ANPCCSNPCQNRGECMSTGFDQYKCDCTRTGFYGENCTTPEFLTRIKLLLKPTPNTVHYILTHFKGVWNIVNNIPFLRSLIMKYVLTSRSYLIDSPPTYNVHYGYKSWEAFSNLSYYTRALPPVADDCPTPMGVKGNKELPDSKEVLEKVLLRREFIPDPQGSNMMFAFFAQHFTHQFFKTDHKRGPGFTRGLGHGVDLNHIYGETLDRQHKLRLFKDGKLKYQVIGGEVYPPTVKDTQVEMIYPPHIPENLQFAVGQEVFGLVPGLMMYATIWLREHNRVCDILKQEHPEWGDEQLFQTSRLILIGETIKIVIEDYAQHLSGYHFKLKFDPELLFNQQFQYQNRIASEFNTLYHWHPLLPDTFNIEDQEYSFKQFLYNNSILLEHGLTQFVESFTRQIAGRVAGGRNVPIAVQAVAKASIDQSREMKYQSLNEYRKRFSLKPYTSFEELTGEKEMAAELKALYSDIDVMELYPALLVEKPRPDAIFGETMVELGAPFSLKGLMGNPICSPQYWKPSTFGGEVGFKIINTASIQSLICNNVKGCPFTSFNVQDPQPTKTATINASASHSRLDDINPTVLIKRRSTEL
Experimental: Steady-state measurements were performed at 37° C. in a 3.5 ml fluorescence cuvette with continuous stirring. […] Data were collected over 240 or 360 seconds with 2-second integration times. The reversibility of quenching was analyzed in the same manner, with subsequent addition of 50 μM AA as competitor. The ligands were dissolved in DMSO before further dilution into buffer. The organic component in the buffer was below 0.4%.
This assay provided a method to directly monitor the binding of INDO and DM-INDO to COXs. Various concentrations of INDO and DM-INDO were added to apo-proteins and the rate of fluorescence decrease was monitored over time. After the mixture reached equilibrium, 50 μM of AA was added as competitor to monitor the reversibility of binding. The kinetic data for quenching were analyzed in the same manner as those for inhibition. For clarity, the equilibrium constant for the first step of fluorescence quenching is referred to as Kd, and k2 and k−2 from the second step of quenching are represented by k′2 and k′−2, respectively.

mCOX-2^V349L = biological target: T2, mCOX-2^V349L (Mus musculus, UniProt Q05769, V335L); assay: Kinetics of time-dependent COX inhibition; assay type: biochemical, murine
T2 construct: made in house; host or cells: Sf9 insect cells (baculovirus, pVL1393)
T2 sequence (Q05769 18-604 V335L): T1 sequence (Q05769 18-604 V335A) with A318L
Experimental: (§1) Assays were terminated and analyzed for substrate consumption by thin layer chromatography. […] Time-dependent COX inhibition reactions were pre-incubated at 37° C. for varying lengths of time (0-30 minutes) with various concentrations of inhibitor. All reactions were performed with [1-^14C]-AA for 30 seconds at 37° C.; reactions were terminated and analyzed as described above.
(§2) To ensure that pseudo-first-order conditions were maintained, the enzymatic oxygenation reactions were terminated after 30 seconds to prevent extensive consumption of substrate. The decline of substrate conversion at different INDO concentrations was plotted against the pre-incubation times and fit to a single exponential decay with a plateau to determine kobs (FIG. 2).
(§3) The rate constant k2 represents the limiting forward rate constant for functionally irreversible inhibition, and KI corresponds to the inhibitor concentration that yields a rate equal to half of the limiting rate.

wild type mCOX-2 = biological target: T3, wild type mCOX-2 (Mus musculus, UniProt Q05769); assay: Kinetics of time-dependent COX inhibition; assay type: biochemical, murine
T3 construct: made in house; host or cells: Sf9 insect cells (baculovirus, pVL1393)
T3 sequence (Q05769 18-604): T1 sequence (Q05769 18-604 V335A) with A318V
Experimental: as §1, §2, §3

For COc1ccc2c(c1)c(CC(=O)O)cn2C(=O)c1ccc(Cl)cc1 [DM-INDO, 2-Des-methylindomethacin], the “k′−2^b” value (mCOX-2^V349A; fluorescence increase from competition with 50 μM AA) was 0.046 ± 0.002 s⁻¹, the Kd (mCOX-2^V349A; fluorescence quenching) was 1.4 ± 0.3 µM and the “k′2” value (mCOX-2^V349A; fluorescence quenching) was 0.17 ± 0.04 s⁻¹. For the same compound, the “k′−2” value (mCOX-2^V349A; fluorescence quenching (decay)) was 0.045 ± 0.008 s⁻¹, the “remaining activity approached (plateau) in time-dependent inhibition curves” value (mCOX-2^V349L; V349L) was “about 30%” and the “higher concentrations required for V349L to achieve similar inhibition as wild type mCOX-2” value (mCOX-2^V349L; V349L versus wild type mCOX-2) was about 10 fold. The “k−2 (y-intercept of linear regression analysis)” value (mCOX-2^V349L; V349L, graph did not plateau, linear regression) was 0.0025 ± 0.0003 s⁻¹, the “off-rate constant slower than the on-rate” value (wild type mCOX-2) was 14 fold and the “remaining activity approached (plateau) in time-dependent inhibition curves” value (wild type mCOX-2) was “about 30%”. The “on-rate constant (k2) faster than for INDO” value (wild type mCOX-2; DM-INDO versus INDO) was 14 fold, the Ki (wild type mCOX-2; time-dependent inhibition) was 26 ± 7 µM and the k2 (wild type mCOX-2; time-dependent inhibition) was 0.80 ± 0.03 s⁻¹. For the same compound, the “k−2” value (wild type mCOX-2; time-dependent inhibition) was 0.05 ± 0.02 s⁻¹.
